Legend:
[1] = tested on: FR-positive KB tumors; experiment: Tissue distribution, KB tumor model (Example 16, Table 5); type: in vivo, nude mice; conditions: about 20-fold excess of free folate
Protocol: The protocols used in this example are similar to those described in Example 11. The ability of ^99mTc-EC11 (peptide-A1), ^99mTc-EC13 (peptide-A3), and ^99mTc-EC14 (peptide-A2) to target tumors in vivo was assessed using the FR-positive KB tumor model.
FR-positive KB tumor cells (0.25×10^6 per animal) were inoculated subcutaneously in the intracapsular region. Fourteen days after tumor cell inoculation, the animals (n=4/group) were injected intravenously with ^99mTc-EC11, ^99mTc-EC13, or ^99mTc-EC14 at the doses (about 12 μg/kg) of the conjugates shown in Table 5 below. Stocks of ^99mTc-EC11, ^99mTc-EC13, and ^99mTc-EC14 solutions were prepared on the day of use as described above. About a 20-fold excess of free folate (about 200 μg/kg) was co-administered to control animals (n=4/group). […] Selected tissues were removed, weighed, and counted in an automatic gamma counter to determine ^99mTc distribution. Uptake of the radiopharmaceutical in terms of percentage injected dose of wet weight tissue (% ID/g) was calculated by reference to standards prepared from dilutions of the injected preparation.

[2] = tested on: FR-positive M109 tumors; experiment: Tissue distribution, subcutaneous M109 tumors (Example 11)
Protocol: The ability of ^99mTc-EC20 to target tumors in vivo was assessed using a FR-positive M109 model.
Four to five week-old mice (Balb/c strain) were purchased from Harlan Sprague Dawley, Inc. (Indianapolis, Ind.) and were maintained on a folate-free diet for a total of three weeks prior to the experiment. Syngeneic, FR-positive M109 tumor cells (1×10^6 per animal) were inoculated in the subcutis of the right axilla two weeks prior to the experiment.
Animals received an approximate 40 μmol/kg i.v. dose of test article in 100 μL volume via a lateral tail vein during brief diethyl ether anesthesia. Four hours post-injection, animals were sacrificed by CO2 asphyxiation, and dissected. Selected tissues were removed, weighed, and counted to determine ^99mTc distribution. CPM values were decay-corrected, and results were tabulated as % injected dose per gram of wet weight tissue.

[3] = 4 hr post i.v., + Folic acid (100 equivalents)
[4] = 4 hr post intravenous injection

Row | Molecule | accumulation in FR-positive KB tumors and kidneys on co-administration of free folate [1] | Blood [2, 4] | Heart [2, 4] | Intestine [2, 4] | Kidney [2, 4] | Liver [2, 4] | Lung [2, 4] | Muscle [2, 4] | Spleen [2, 4] | Stomach [2, 4] | Tumor/Blood [2, 4] | also measured
1 | Nc1nc2ncc(CNc3ccc(C(=O)N[C@@H](CCC(=O)N[C@@H](CCC(=O)NC[C@@H]4[NH2+][99Tc-]56(=[O])[S]C[C@@H](C(=O)O)[N]5C(=O)[C@H](CC(=O)O)[N]6C4=O)C(=O)O)C(=O)O)cc3)nc2c(=O)[nH]1 [^99mTc-EC11] | blocked |  |  |  |  |  |  |  |  |  |  | 
2 | Nc1nc2ncc(CNc3ccc(C(=O)N[C@@H](CCC(=O)NC[C@@H]4[NH2+][99Tc-]56(=[O])[S]C[C@@H](C(=O)O)[N]5C(=O)[C@H](CO)[N]6C4=O)C(=O)O)cc3)nc2c(=O)[nH]1 [^99mTc-EC13] | blocked |  |  |  |  |  |  |  |  |  |  | 
3 | Nc1nc2ncc(CNc3ccc(C(=O)N[C@@H](CCC(=O)NCCNC(=O)CN(CCN(CCN(CC(=O)[O-])CC(=O)[O-])CC(=O)[O-])CC(=O)[O-])C(=O)O)cc3)nc2c(=O)[nH]1.[111In] [^111In-DTPA-Folate, reference compound] |  | 0.21 ± 0.10 % Injected Dose per Gram Tissue | 2.57 ± 0.82 % Injected Dose per Gram Tissue | 1.87 ± 0.69 % Injected Dose per Gram Tissue | 191 ± 79.2 % Injected Dose per Gram Tissue | 5.21 ± 2.63 % Injected Dose per Gram Tissue | 1.72 ± 0.61 % Injected Dose per Gram Tissue | 1.19 ± 0.48 % Injected Dose per Gram Tissue | 3.30 ± 2.33 % Injected Dose per Gram Tissue | 1.62 ± 0.65 % Injected Dose per Gram Tissue | 102 ± 43.4 | Blood [2, 3]: 0.09 ± 0.04 % Injected Dose per Gram Tissue; Heart [2, 3]: 0.06 ± 0.02 % Injected Dose per Gram Tissue; Intestine [2, 3]: 0.82 ± 0.14 % Injected Dose per Gram Tissue; Kidney [2, 3]: 3.14 ± 1.96 % Injected Dose per Gram Tissue; Liver [2, 3]: 0.81 ± 0.03 % Injected Dose per Gram Tissue; Lung [2, 3]: 0.09 ± 0.2 % Injected Dose per Gram Tissue; Muscle [2, 3]: 0.05 ± 0.04 % Injected Dose per Gram Tissue; Spleen [2, 3]: 1.46 ± 0.73 % Injected Dose per Gram Tissue; Stomach [2, 3]: 0.25 ± 0.20 % Injected Dose per Gram Tissue; Tumor [2, 3]: 0.46 ± 0.42 % Injected Dose per Gram Tissue; Tumor/Blood [2, 3]: 5.00 ± 4.60
4 | benzoyl-D-Glu-n-Glu-βDpr-Asp-Cys [^99mTc-EC28, reference compound] |  | 0.06 ± 0.04 % Injected Dose per Gram Tissue | 0.03 ± 0.01 % Injected Dose per Gram Tissue | 0.47 ± 0.19 % Injected Dose per Gram Tissue | 0.62 ± 0.14 % Injected Dose per Gram Tissue | 0.50 ± 0.26 % Injected Dose per Gram Tissue | 0.05 ± 0.01 % Injected Dose per Gram Tissue | 0.02 ± 0.01 % Injected Dose per Gram Tissue | 0.60 ± 0.38 % Injected Dose per Gram Tissue | 0.21 ± 0.19 % Injected Dose per Gram Tissue | 2.00 ± 0.50 | accumulation in the kidneys and tumor ([2]; 4 hr post i.v.): failed to appreciably accumulate in the kidneys and tumor; Tumor ([2]; 4 hr post intravenous injection, M109 tumor): 0.11 ± 0.06 % Injected Dose per Gram Tissue

Reference: patent US7862798B2, “Vitamin-targeted imaging agents” (Endocyte, Inc., priority 2002, dated 2011)
